According to patent EP0240392A1, “Compounds of the cyclophosphazene type, process for their preparation and pharmaceutical preparation containing them” (CENTRE NATIONAL DE LA RECHERCHE SCIENTIFIQUE (CNRS), priority 1986, dated 1987):

How the values were obtained:
[1] = system: ERYTH[…] K562; assay: Growth of human erythroleukemia K562 in vitro; assay type: cell-based, humaine
[2] = system: RETICULO SARCOME M5076 MURIN; assay: Antitumour activity on murine M5076 reticulum sarcoma implanted i.m. in mice; assay type: in vivo, souris C57Bl/6; details: for Poids corporel (g±S.E.) / Poids de la rate (mg±S.E.) / Poids de la tumeur (g±S.E.) / Poids du foie (g±S.E.): jour 23
Excerpt: Les tests d'activité antitumorale ont été conduits au sein du Screening and Pharmacology Group de l'E.O.R.T.C., implanté à l'Institut Mario Negri de Milan.
Ces essais ont été conduits soit en mono-injection à différentes doses au jour J+1 suivant la greffe de la tumeur, soit en poly-injections chroniques Q1D, soit en protocoles Q4D.

[3] = 100 mg/kg i.p. x j 1-9, jour 21
[4] = 150 mg/kg i.p. x j 1,5,9, jour 14
[5] = 150 mg/kg i.p. x j 1,5,9, jour 21
[6] = 150 mg/kg i.p. x j 1-9, jour 21
[7] = 200 mg/kg i.p. x j 1,5,9, jour 14
[8] = 200 mg/kg i.p. x j 1,5,9, jour 21
[9] = 250 mg/kg i.p. x j 1,5,9, jour 14

With C(CCN1CCCNP12=NP(N1CC1)(N1CC1)=NP(N1CC1)(N1CC1)=N2)CN1CCCNP12=NP(N1CC1)(N1CC1)=NP(N1CC1)(N1CC1)=N2 (stereo not drawn) [SPM] the “Nombre de cellules x 10^4” value ([1]; 0,01 µg/ml, 24 heures) was 20,7 ± 1,7 x 10^4, the “Nombre de cellules x 10^4” value ([1]; 0,1 µg/ml, 24 heures) was 17,8 ± 1,7 x 10^4 and the “Nombre de cellules x 10^4” value ([1]; 0,01 µg/ml, 48 heures) was 41,5 ± 1,6 x 10^4. For the same compound, the “Nombre de cellules x 10^4” value ([1]; 0,1 µg/ml, 48 heures) was 37,2 ± 4,5 x 10^4, the “Nombre de cellules x 10^4” value ([1]; 0,01 µg/ml, 72 heures) was 60,7 ± 5,8 x 10^4 and the “Nombre de cellules x 10^4” value ([1]; 0,1 µg/ml, 72 heures) was 60,6 ± 5,4 x 10^4. For the same compound, the “Nombre de cellules x 10^4” value ([1]; 1 µg/ml, 24 heures) was 17,8 ± 3,3 x 10^4, the “Nombre de cellules x 10^4” value ([1]; 1 µg/ml, 48 heures) was 36,4 ± 1,8 x 10^4 and the “Nombre de cellules x 10^4” value ([1]; 1 µg/ml, 72 heures) was 50,9 ± 4,3 x 10^4. For the same compound, the “Nombre de cellules x 10^4” value ([1]; 5 µg/ml, 24 heures) was 17,3 ± 1,4 x 10^4, the “Nombre de cellules x 10^4” value ([1]; 5 µg/ml, 48 heures) was 20,9 ± 2,1 x 10^4 and the “Nombre de cellules x 10^4” value ([1]; 5 µg/ml, 72 heures) was 35,5 ± 2,0 x 10^4. The “Nombre de cellules x 10^4” value ([1]; 10 µg/ml, 24 heures) was 17,4 ± 0,9 x 10^4, the “Nombre de cellules x 10^4” value ([1]; 10 µg/ml, 48 heures) was 21,1 ± 0,2 x 10^4 and the “Nombre de cellules x 10^4” value ([1]; 10 µg/ml, 72 heures) was 26,9 ± 2,3 x 10^4. The “Nombre de cellules x 10^4” value ([1]; 50 µg/ml, 24 heures) was 13,2 ± 1,7 x 10^4, the “Nombre de cellules x 10^4” value ([1]; 50 µg/ml, 48 heures) was 15,0 ± 1,5 x 10^4 and the “Nombre de cellules x 10^4” value ([1]; 50 µg/ml, 72 heures) was 17,4 ± 1,3 x 10^4. The “Nombre de cellules x 10^4” value ([1]; 100 µg/ml, 24 heures) was 11,6 ± 0,4 x 10^4, the “Nombre de cellules x 10^4” value ([1]; 100 µg/ml, 48 heures) was 14,7 ± 0,1 x 10^4 and the “Nombre de cellules x 10^4” value ([1]; 100 µg/ml, 72 heures) was 15,0 ± 0,8 x 10^4. For the same compound, the “effet sur la croissance in vitro de l'érythroleucémie humaine K562 (result in words)” value ([1]; in vitro, MYCLAz: même à dose toxique) was “inhibe d'une manière très remarquable la croissance in vitro”, the “amplitude de la plage de doses à effet significatif” value ([1]; ratio of highest to lowest significant dose) was ≥ 10 000 and the “Volume moyen de la tumeur (cm^3 ± S.E.)” value ([2]; 50 mg/kg i.p. x j 1-9, jour 14) was 0,38±0,01 cm^3. For the same compound, the “nombre de souris avec tumeur/total” value ([2]; 50 mg/kg i.p. x j 1-9, jour 14) was 4/10, the “Volume moyen de la tumeur (cm^3 ± S.E.)” value ([2]; 50 mg/kg i.p. x j 1-9, jour 21) was 2,03±0,17 cm^3 and the “nombre de souris avec tumeur/total” value ([2]; 50 mg/kg i.p. x j 1-9, jour 21) was 9/9. For the same compound, the “Poids corporel (g±S.E.)” value ([2]; 50 mg/kg i.p. x j 1-9) was 20,05±0,60 g, the “Poids de la rate (mg±S.E.)” value ([2]; 50 mg/kg i.p. x j 1-9) was 206,8±12,0 mg and the “Poids de la tumeur (g±S.E.)” value ([2]; 50 mg/kg i.p. x j 1-9) was 3,4033±0,26 g. The “Poids du foie (g±S.E.)” value ([2]; 50 mg/kg i.p. x j 1-9) was 1,6089±0,10 g, the “nombre de souris avec tumeur/total” value ([2]; 100 mg/kg i.p. x j 1-9, jour 14) was “- (0/10)” and the “Volume moyen de la tumeur (cm^3 ± S.E.)” value [2, 3] was 0,92±0,03 cm^3. The “nombre de souris avec tumeur/total” value [2, 3] was 12/12, the “Poids corporel (g±S.E.)” value ([2]; 100 mg/kg i.p. x j 1-9) was 20,22±0,37 g and the “Poids de la rate (mg±S.E.)” value ([2]; 100 mg/kg i.p. x j 1-9) was 137,9±5,04 mg. The “Poids de la tumeur (g±S.E.)” value ([2]; 100 mg/kg i.p. x j 1-9) was 2,1947±0,07 g, the “Poids du foie (g±S.E.)” value ([2]; 100 mg/kg i.p. x j 1-9) was 1,1750±0,03 g and the “Volume moyen de la tumeur (cm^3 ± S.E.)” value [2, 4] was 0,41±0,04 cm^3. The “nombre de souris avec tumeur/total” value [2, 4] was 4/10, the “Volume moyen de la tumeur (cm^3 ± S.E.)” value [2, 5] was 2,23±0,16 cm^3 and the “nombre de souris avec tumeur/total” value [2, 5] was 10/10. For the same compound, the “Poids corporel (g±S.E.)” value ([2]; 150 mg/kg i.p. x j 1,5,9) was 21,55±0,29 g, the “Poids de la rate (mg±S.E.)” value ([2]; 150 mg/kg i.p. x j 1,5,9) was 240,7±17,1 mg and the “Poids de la tumeur (g±S.E.)” value ([2]; 150 mg/kg i.p. x j 1,5,9) was 3,5869±0,18 g. For the same compound, the “Poids du foie (g±S.E.)” value ([2]; 150 mg/kg i.p. x j 1,5,9) was 1,7270±0,10 g, the “nombre de souris avec tumeur/total” value ([2]; 150 mg/kg i.p. x j 1-9, jour 14) was “- (0/10)” and the “Volume moyen de la tumeur (cm^3 ± S.E.)” value [2, 6] was 0,72±0 cm^3. For the same compound, the “nombre de souris avec tumeur/total” value [2, 6] was 1/10, the “Poids corporel (g±S.E.)” value ([2]; 150 mg/kg i.p. x j 1-9) was 17,55±0,70 g and the “Poids de la rate (mg±S.E.)” value ([2]; 150 mg/kg i.p. x j 1-9) was 103,0±6,02 mg. For the same compound, the “Poids de la tumeur (g±S.E.)” value ([2]; 150 mg/kg i.p. x j 1-9) was 1,0795±0,11 g, the “Poids du foie (g±S.E.)” value ([2]; 150 mg/kg i.p. x j 1-9) was 1,0190±0,03 g and the “Volume moyen de la tumeur (cm^3 ± S.E.)” value [2, 7] was 0,36±0,04 cm^3. For the same compound, the “nombre de souris avec tumeur/total” value [2, 7] was 2/10, the “Volume moyen de la tumeur (cm^3 ± S.E.)” value [2, 8] was 2,02±0,26 cm^3 and the “nombre de souris avec tumeur/total” value [2, 8] was 10/10. For the same compound, the “Poids corporel (g±S.E.)” value ([2]; 200 mg/kg i.p. x j 1,5,9) was 21,05±0,39 g, the “Poids de la rate (mg±S.E.)” value ([2]; 200 mg/kg i.p. x j 1,5,9) was 208,6± 8,8 mg and the “Poids de la tumeur (g±S.E.)” value ([2]; 200 mg/kg i.p. x j 1,5,9) was 3,2003±0,18 g. For the same compound, the “Poids du foie (g±S.E.)” value ([2]; 200 mg/kg i.p. x j 1,5,9) was 1,4620±0,08 g, the “nombre de souris avec tumeur/total” value ([2]; 200 mg/kg i.p. x j 1-9, jour 14) was “- (0/10)” and the “nombre de souris avec tumeur/total” value ([2]; 200 mg/kg i.p. x j 1-9, jour 21) was “- (0/10)”. The “Poids corporel (g±S.E.)” value ([2]; 200 mg/kg i.p. x j 1-9) was 17,20±0,48 g, the “Poids de la rate (mg±S.E.)” value ([2]; 200 mg/kg i.p. x j 1-9) was 117,8±9,9 mg and the “Poids de la tumeur (g±S.E.)” value ([2]; 200 mg/kg i.p. x j 1-9) was 0,3819±0,13 g. For the same compound, the “Poids du foie (g±S.E.)” value ([2]; 200 mg/kg i.p. x j 1-9) was 1,1088±0,01 g, the “Volume moyen de la tumeur (cm^3 ± S.E.)” value [2, 9] was 0,32 cm^3 and the “nombre de souris avec tumeur/total” value [2, 9] was 1/9.
